From US20100298141A1, “SUBSTITUTED PYRIDINE N-OXIDE HERBICIDES” (E. I. DU PONT DE NEMOURS AND COMPANY, priority 2007, published 2010)

Assays:
[1] = system: yellow nutsedge; test: Test C pre-/postemergence test; format: in vivo, Cyperus esculentus
Description: (§1) Seeds of plant species selected from blackgrass (Alopecurus myosuroides), downy brome (Bromus tectorum), green foxtail (Setaria viridis), Italian ryegrass (Lolium multiflorum), wheat (Triticum aestivum), wild oat (Avena fatua), catchweed bedstraw (Galium aparine), Russian thistle (Salsola kali), […] (Cynodon dactylon), Surinam grass (Brachiaria decumbens), cocklebur (Xanthium strumarium), corn (Zea mays), crabgrass (Digitaria sanguinalis), woolly cupgrass (Eriochloa villosa), giant foxtail (Setaria faberii), Goosegrass (Eleusin indica), johnsongrass (Sorghum halepense), kochia (Kochia scoparia), lambsquarters (Chenopodium album), morningglory (Ipomoea coccinea), eastern black nightshade (Solanum ptycanthum), yellow nutsedge (Cyperus esculentus), pigweed (Amaranthus retroflexus), common ragweed (Ambrosia elation), soybean (Glycine max), common (oilseed) sunflower (Helianthus annuus), and velvetleaf (Abutilon theophrasti) were planted and treated preemergence with test chemicals formulated in a non-phytotoxic solvent mixture which included a surfactant. At the same time, plants selected from these crop and weed species and also winter barley (Hordeum vulgare), canarygrass (Phalaris minor), and chickweed (Stellaria media) were treated with postemergence applications of some of the test chemicals formulated in the same manner. Plants ranged in height from 2 to 18 cm (1- to 4-leaf stage) for postemergence treatments. […] At time of treatment, test pots were flooded to 3 cm above the soil surface, treated by application of test compounds directly to the paddy water, and then maintained at that water depth for the duration of the test. […] A dash (-) response means no test result.

[2] = system: wild oat; test: Test C pre-/postemergence test; format: in vivo, Avena fatua
Description: as §1

[3] = system: common (oilseed) sunflower; test: Test C pre-/postemergence test; format: in vivo, Helianthus annuus
Description: as §1

[4] = system: kochia; test: Test C pre-/postemergence test; format: in vivo, Kochia scoparia
Description: as §1

[5] = system: morningglory; test: Test A pre-/postemergence greenhouse test; format: in vivo, Ipomoea spp.; details: for Plant response rating, Morningglory: 0 to 100 scale where 0 is no effect and 100 is complete control; for Morningglory plant response rating: 0 to 100 scale
Method in brief: (§2)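 Visual injury ratings, made relative to untreated controls roughly ten days after treatment, cover both preemergence and postemergence application. Compounds in a surfactant-containing non-phytotoxic solvent were sprayed onto the soil surface after sowing and, simultaneously, onto young plants at the one- to two-leaf stage.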

[6] = system: johnsongrass; test: Test C pre-/postemergence test; format: in vivo, Sorghum halepense
Description: as §1

[7] = system: corn; test: Test C pre-/postemergence test; format: in vivo, Zea mays
Description: as §1

[8] = system: morningglory; test: Test C pre-/postemergence test; format: in vivo, Ipomoea coccinea
Description: as §1

[9] = system: wheat; test: Test C pre-/postemergence test; format: in vivo, Triticum aestivum
Description: as §1

[10] = system: rice; test: Test C flooded paddy test; format: in vivo, Oryza sativa; details: Flood
Method in brief: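 Compound was added to standing water 3 cm above soil, flood maintained, and plants held in a greenhouse before visual scoring against controls at 13 to 15 days.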

[11] = system: giant foxtail; test: Test C pre-/postemergence test; format: in vivo, Setaria faberii; details: for Foxtail, Giant plant response rating: preemergence, scale 0 (no effect) to 100 (complete control)
Description: as §1

[12] = system: corn; test: Test A pre-/postemergence greenhouse test; format: in vivo, Zea mays; details: for Plant response rating, Corn: 0 to 100 scale where 0 is no effect and 100 is complete control; for Corn plant response rating: 0 to 100 scale
Method in brief: as §2

[13] = system: bermudagrass; test: Test C pre-/postemergence test; format: in vivo, Cynodon dactylon
Description: as §1

[14] = system: Italian ryegrass; test: Test C pre-/postemergence test; format: in vivo, Lolium multiflorum
Description: as §1

[15] = system: redroot pigweed; test: Test A pre-/postemergence greenhouse test; format: in vivo, Amaranthus retroflexus; details: for Plant response rating, Pigweed: 0 to 100 scale where 0 is no effect and 100 is complete control; for Pigweed plant response rating: 0 to 100 scale
Method in brief: as §2

[16] = system: cocklebur; test: Test C pre-/postemergence test; format: in vivo, Xanthium strumarium; details: for Plant response rating, Cocklebur: scale 0 to 100, 0 no effect, 100 complete control
Description: as §1

[17] = 62 g ai/ha, Preemergence, scale 0 to 100
[18] = 125 g ai/ha, preemergence, scale 0 (no effect) to 100 (complete control)
[19] = Postemergence, 62 g ai/ha, scale 0 to 100, 0 no effect, 100 complete control
[20] = Postemergence, 125 g ai/ha, scale 0 to 100, 0 no effect, 100 complete control
[21] = Postemergence, 250 g ai/ha, scale 0 to 100, 0 no effect, 100 complete control
[22] = Preemergence, 31 g ai/ha, scale 0 to 100 (0 no effect, 100 complete control)
[23] = preemergence, 250 g ai/ha, scale 0 (no effect) to 100 (complete control)
[24] = Postemergence, 500 g ai/ha, 0 is no effect, 100 is complete control
[25] = Preemergence, 125 g ai/ha, 0 no effect, 100 complete control

In the case of `CCn1nc(C(F)(F)F)c(C[S+]([O-])c2cccc[n+]2[O-])c1OCC(F)(F)F` (racemic) [Compound 65], the “Nutsedge, Yellow plant response rating” value [1, 17] was 40, the “Nutsedge, Yellow plant response rating” value [1, 18] was 50 and the “Plant response rating (0 to 100), Nutsedge, Yellow” value ([1]; Postemergence, 31 g ai/ha) was 0. The “Plant response rating, Nutsedge, Yellow” value [1, 19] was 0, the “Plant response rating, Nutsedge, Yellow” value [1, 20] was 0 and the “Plant response rating, Nutsedge, Yellow” value [1, 21] was 0. For the same molecule, the “Plant response rating, Nutsedge, Yellow” value [1, 22] was 0, the “Nutsedge, Yellow plant response rating” value [1, 23] was 60 and the “Oat, Wild plant response rating” value [2, 17] was 98. The “Oat, Wild plant response rating” value [2, 18] was 98, the “Plant response rating (0 to 100), Oat, Wild” value ([2]; Postemergence, 31 g ai/ha) was 0 and the “Plant response rating, Oat, Wild” value [2, 19] was 40. The “Plant response rating, Oat, Wild” value [2, 20] was 80, the “Plant response rating, Oat, Wild” value [2, 21] was 85 and the “Plant response rating, Oat, Wild” value [2, 22] was 85. The “Oat, Wild plant response rating” value [2, 23] was 100, the “Sunflower plant response rating” value [3, 17] was 50 and the “Sunflower plant response rating” value [3, 18] was 100. The “Plant response rating, Sunflower” value [3, 22] was 45, the “Kochia plant response rating” value [4, 17] was 100 and the “Kochia plant response rating” value [4, 18] was 100. The “Plant response rating (0 to 100), Kochia” value ([4]; Postemergence, 31 g ai/ha) was 0, the “Plant response rating, Kochia” value [4, 19] was 0 and the “Plant response rating, Kochia” value [4, 20] was 0. For the same molecule, the “Plant response rating, Kochia” value [4, 21] was 0, the “Plant response rating, Kochia” value [4, 22] was 100 and the “Kochia plant response rating” value [4, 23] was 100. The “Plant response rating, Morningglory” value ([5]; Postemergence, 125 g ai/ha) was 60, the “Morningglory plant response rating” value [5, 24] was 90 and the “Morningglory plant response rating” value [5, 25] was 60. For the same molecule, the “Plant response rating, Morningglory” value ([5]; Preemergence, 500 g ai/ha) was 100, the “Johnsongrass plant response rating” value [6, 17] was 100 and the “Johnsongrass plant response rating” value [6, 18] was 100. For the same molecule, the “Plant response rating (0 to 100), Johnsongrass” value ([6]; Postemergence, 31 g ai/ha) was 0, the “Plant response rating, Johnsongrass” value [6, 19] was 0 and the “Plant response rating, Johnsongrass” value [6, 20] was 0. The “Plant response rating, Johnsongrass” value [6, 21] was 0, the “Plant response rating, Johnsongrass” value [6, 22] was 98 and the “Johnsongrass plant response rating” value [6, 23] was 100. The “Corn plant response rating” value [7, 17] was 100, the “Corn plant response rating” value [7, 18] was 100 and the “Plant response rating (0 to 100), Corn” value ([7]; Postemergence, 31 g ai/ha) was 0. The “Plant response rating, Corn” value [7, 19] was 0, the “Plant response rating, Corn” value [7, 20] was 50 and the “Plant response rating, Corn” value [7, 22] was 70. The “Corn plant response rating” value [7, 23] was 100, the “Morningglory plant response rating” value [8, 17] was 0 and the “Plant response rating (0 to 100), Morningglory” value ([8]; Postemergence, 31 g ai/ha) was 0. The “Plant response rating, Morningglory” value [8, 19] was 0, the “Plant response rating, Morningglory” value [8, 20] was 0 and the “Plant response rating, Morningglory” value [8, 21] was 0. The “Plant response rating, Morningglory” value [8, 22] was 0, the “Morningglory plant response rating” value [8, 23] was 75 and the “Wheat plant response rating” value [9, 17] was 80. The “Wheat plant response rating” value [9, 18] was 100, the “Plant response rating (0 to 100), Wheat” value ([9]; Postemergence, 31 g ai/ha) was 0 and the “Plant response rating (0 to 100), Wheat” value ([9]; Postemergence, 62 g ai/ha) was 0. For the same molecule, the “Plant response rating, Wheat” value [9, 20] was 25, the “Plant response rating, Wheat” value [9, 21] was 30 and the “Plant response rating, Wheat” value [9, 22] was 50. For the same molecule, the “Wheat plant response rating” value [9, 23] was 100, the “Plant response rating, Rice” value ([10]; 62 g ai/ha, scale 0 to 100 (0 no effect, 100 complete control)) was 0 and the “Plant response rating, Rice” value ([10]; 250 g ai/ha, scale 0 to 100, 0 no effect, 100 complete control, 13 to 15 days) was 45. The “Foxtail, Giant plant response rating” value ([11]; 125 g ai/ha) was 100, the “Plant response rating (0 to 100), Foxtail, Giant” value ([11]; Postemergence, 31 g ai/ha) was 0 and the “Plant response rating, Foxtail, Giant” value [11, 19] was 0. The “Plant response rating, Foxtail, Giant” value [11, 20] was 40, the “Plant response rating, Foxtail, Giant” value [11, 21] was 80 and the “Plant response rating, Foxtail, Giant” value [11, 22] was 98. The “Foxtail, Giant plant response rating” value ([11]; 250 g ai/ha) was 100, the “Plant response rating, Corn” value ([12]; Postemergence, 125 g ai/ha) was 70 and the “Corn plant response rating” value [12, 24] was 80. For the same molecule, the “Corn plant response rating” value [12, 25] was 40, the “Plant response rating, Corn” value ([12]; Preemergence, 500 g ai/ha) was 80 and the “Bermudagrass plant response rating” value ([13]; 62 g ai/ha, Preemergence, scale 0 to 100 (0 no effect, 100 complete control)) was 100. The “Bermudagrass plant response rating” value [13, 18] was 100, the “Plant response rating (0 to 100), Bermudagrass” value ([13]; Postemergence, 31 g ai/ha) was 0 and the “Plant response rating, Bermudagrass” value [13, 19] was 0. The “Plant response rating, Bermudagrass” value [13, 20] was 70, the “Plant response rating, Bermudagrass” value [13, 21] was 90 and the “Plant response rating, Bermudagrass” value [13, 22] was 100. The “Bermudagrass plant response rating” value [13, 23] was 100, the “Ryegrass, Italian plant response rating” value [14, 17] was 100 and the “Ryegrass, Italian plant response rating” value [14, 18] was 100. For the same molecule, the “Plant response rating (0 to 100), Ryegrass, Italian” value ([14]; Postemergence, 31 g ai/ha) was 0, the “Plant response rating (0 to 100), Ryegrass, Italian” value ([14]; Postemergence, 62 g ai/ha) was 0 and the “Plant response rating, Ryegrass, Italian” value [14, 20] was 90. The “Plant response rating, Ryegrass, Italian” value [14, 21] was 95, the “Plant response rating, Ryegrass, Italian” value [14, 22] was 50 and the “Ryegrass, Italian plant response rating” value [14, 23] was 100. The “Plant response rating, Pigweed” value ([15]; Postemergence, 125 g ai/ha) was 80, the “Pigweed plant response rating” value [15, 24] was 90 and the “Pigweed plant response rating” value [15, 25] was 100. The “Plant response rating, Pigweed” value ([15]; Preemergence, 500 g ai/ha) was 100, the “Cocklebur plant response rating” value [16, 17] was 0 and the “Plant response rating (0 to 100), Cocklebur” value ([16]; Postemergence, 31 g ai/ha) was 0. For the same molecule, the “Plant response rating, Cocklebur” value ([16]; Postemergence, 62 g ai/ha) was 0, the “Plant response rating, Cocklebur” value ([16]; Postemergence, 125 g ai/ha) was 0 and the “Plant response rating, Cocklebur” value ([16]; Postemergence, 250 g ai/ha) was 0. The “Cocklebur plant response rating” value [16, 23] was 90.
